Experimental data published in US8513220B2, “Aromatic compounds having sphingosine-1-phosphonate (S1P) receptor activity” (Allergan, Inc., priority 2010, dated 2013).

Tests used:
human S1P1 receptor = target: T1, human S1P1 receptor (Homo sapiens, UniProt P21453); assay: GTP γ35S binding assay for S1P1 activity; type: biochemical; settings: for activation at 5 µM: S1P1 receptor GTPγ^35S, read-out: % STIMULATION @ 5 μM; for EC50: S1P1 receptor, membranes, compounds 0.08 to 5,000 nM, read-out: GTPγ^35S EC50
T1 construct: expressed in transfected cells; membranes used
Description: Novel compounds were synthesized and tested for S1P1 activity using the GTP γ^35S binding assay. These compounds may be assessed for their ability to activate or block activation of the human S1P1 receptor in cells stably expressing the S1P1 receptor. GTP γ^35S binding was measured in the medium containing (mM) HEPES 25, pH 7.4, MgCl2 10, NaCl 100, dithitothreitol 0.5, digitonin 0.003%, 0.2 nM GTP γ^35S, and 5 μg membrane protein in a volume of 150 μl. Test compounds were included in the concentration range from 0.08 to 5,000 nM unless indicated otherwise. Membranes were incubated with 100 μM 5′-adenylylimmidodiphosphate for 30 min, and subsequently with 10 μM GDP for 10 min on ice. Drug solutions and membrane were mixed, and then reactions were initiated by adding GTP γ^35S and continued for 30 min at 25° C. Reaction mixtures were filtered over Whatman GF/B filters under vacuum, and washed three times with 3 mL of ice-cold buffer (HEPES 25, pH7.4, MgCl2 10 and NaCl 100). Filters were dried and mixed with scintillant, and counted for ^35S activity using a […]. Agonist-induced GTP γ^35S binding was obtained by subtracting that in the absence of agonist. Binding data were analyzed using a non-linear regression method. In case of antagonist assay, the reaction mixture contained 10 nM S1P in the presence of test antagonist at concentrations ranging from 0.08 to 5000 nM.
Activity potency: S1P1 receptor from GTP γ^35S: nM, (EC50)

lymphocytes in blood = assay: Lymphopenia assay in mice (in vivo blood lymphocyte depletion); settings: female C57BL6 mice, 10 mg/Kg subcutaneous
Description: Test drugs are prepared in a solution containing 3% (w/v) 2-hydroxy propyl β-cyclodextrin (HPBCD) and 1% DMSO to a final concentration of 1 mg/ml, and subcutaneously injected to female C57BL6 mice (CHARLES RIVERS) weighing 20-25 g at the dose of 10 mg/Kg. Blood samples are obtained by puncturing the submandibular skin with a Goldenrod animal lancet at 5, 24, 48, 72, and 96 hrs post drug application. Blood is collected into microvettes (SARSTEDT) containing EDTA tripotassium salt. Lymphocytes in blood samples are counted using a HEMAVET Multispecies Hematology System, HEMAVET HV950FS (Drew Scientific Inc.). (Hale, J. et al Bioorg. & Med. Chem. Lett. 14 (2004) 3351).
A lymphopenia assay in mice; as previously described, was employed to measure the in vivo blood lymphocyte depletion after dosing with: • (3-{[5-(4-Hexyl-phenyl)-6-thiophen-2-yl-pyridin-2-ylmethyl]-amino}-propyl)-phosphonic acid, Compound 2 (FIG. 1); • (3-{[6-(5-Fluoro-thiophen-2-yl)-5-(4-hexyl-phenyl)-pyridin-2-ylmethyl]-amino}-propyl)-phosphonic acid, Compound 3 (FIG. 2); • (3-{[5-(4-Hexyl-3-propyl-phenyl)-6-thiophen-2-yl-pyridin-2-ylmethyl]-amino}-propyl)-phosphonic acid, Compound 4 (FIG. 3); • [3-({5-[4-(3-Phenyl-propyl)-phenyl]-6-thiophen-2-yl-pyridin-2-ylmethyl}-amino)-propyl]-phosphonic acid, Compound 5 (FIG. 4); • (3-{[5-(4-Hexyl-phenyl)-6-thiophen-3-yl-pyridin-2-ylmethyl]-amino}-propyl)-phosphonic acid, Compound 6 (FIG. 5); • (3-{[5-(4-Hexyl-phenyl)-6-oxazol-4-yl-pyridin-2-ylmethyl]-amino}-propyl)-phosphonic acid, Compound 7 (FIG. 6); • (3-{[6-Furan-2-yl-5-(4-hexyl-phenyl)-pyridin-2-ylmethyl]-amino}-propyl)-phosphonic acid, Compound 9 (FIG. 7); • [3-({6-Phenyl-5-[4-(3-phenyl-propyl)-phenyl]-pyridin-2-ylmethyl}-amino)-propyl]-phosphonic acid, Compound 14 (FIGS. 8) and • (3-{[5-(4-Hexyl-3-propyl-phenyl)-6-phenyl-pyridin-2-ylmethyl]-amino}-propyl)-phosphonic acid, Compound 16 (FIG. 9).
These S1P agonist (or modulator) is useful for S1P-related diseases, and exemplified by the lymphopenia in vivo response. In general, test drugs Compound 3 and 16 were prepared in a solution containing 3% (w/v) 2-hydroxy propyl β-cyclodextrin (HPBCD) and 1% DMSO to a final concentration of 1 mg/ml, and subcutaneously injected to female C57BL6 mice (CHARLES RIVERS) weighing 20-25 g at the dose of 10 mg/Kg. Blood samples were obtained by puncturing the submandibular skin with a Goldenrod animal lancet at 5, 24, 48, and 72 hrs post drug application. Blood was collected into microvettes (SARSTEDT) containing EDTA tripotassium salt. Lymphocytes in blood samples were counted using a HEMAVET Multispecies Hematology System, HEMAVET HV950FS (Drew Scientific Inc.). Results are shown in the following figures below that depict lowered lymphocyte count after 5 hours (<1 number of lymphocytes 10^3/μL blood).

T1 sequence (P21453 whole entry): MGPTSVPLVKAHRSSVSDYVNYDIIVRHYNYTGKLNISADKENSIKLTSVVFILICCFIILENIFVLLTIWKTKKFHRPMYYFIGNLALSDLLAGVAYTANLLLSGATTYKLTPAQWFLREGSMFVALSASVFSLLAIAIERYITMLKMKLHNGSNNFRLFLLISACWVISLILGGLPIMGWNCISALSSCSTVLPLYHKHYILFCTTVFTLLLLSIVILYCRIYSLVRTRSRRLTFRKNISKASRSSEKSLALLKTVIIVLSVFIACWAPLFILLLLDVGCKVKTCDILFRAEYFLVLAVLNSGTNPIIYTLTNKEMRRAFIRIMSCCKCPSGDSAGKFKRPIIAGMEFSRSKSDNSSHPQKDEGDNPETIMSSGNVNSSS

CCCCCCc1ccc(-c2ccc(CNCCCP(=O)(O)O)nc2-c2ccccc2)cc1 [Compound 27, (3-{[5-(4-Hexyl-phenyl)-6-phenyl-pyridin-2-ylmethyl]-amino}-propyl)-phosphonic acid]
activation at 5 µM (human S1P1 receptor): 112% | EC50 (human S1P1 receptor): 252 nM

CCCCCOc1ccc(-c2ccc(CNCCCP(=O)(O)O)nc2-c2ccc(F)cc2)cc1 [Compound 18, (3-{[6-(4-Fluoro-phenyl)-5-(4-pentyloxy-phenyl)-pyridin-2-ylmethyl]-amino}-propyl)-phosphonic acid]
activation at 5 µM (human S1P1 receptor): 104% | EC50 (human S1P1 receptor): 472 nM

O=P(O)(O)CCCNCc1ccc(-c2ccc(CCCc3ccccc3)cc2)c(-c2cccs2)n1 [Compound 5, [3-({5-[4-(3-Phenyl-propyl)-phenyl]-6-thiophen-2-yl-pyridin-2-ylmethyl}-amino)-propyl]-phosphonic acid]
activation at 5 µM (human S1P1 receptor): 91.1% | EC50 (human S1P1 receptor): 2.36 nM | number of lymphocytes found in the blood (lymphocytes in blood; after 48 h of drug application): reduced

O=P(O)(O)CCCNCc1ccc(-c2ccc(CCCc3ccccc3)cc2)c(-c2cccc(Cl)c2)n1 [Compound 13, [3-({6-(3-Chloro-phenyl)-5-[4-(3-phenyl-propyl)-phenyl]-pyridin-2-ylmethyl}-amino)-propyl]-phosphonic acid]
activation at 5 µM (human S1P1 receptor): 64% | EC50 (human S1P1 receptor): 2430 nM

O=P(O)(O)CCCNCc1ccc(-c2ccc(CCCc3ccccc3)cc2)c(-c2ccccc2)n1 [Compound 14, [3-({6-Phenyl-5-[4-(3-phenyl-propyl)-phenyl]-pyridin-2-ylmethyl}-amino)-propyl]-phosphonic acid]
activation at 5 µM (human S1P1 receptor): 86.6% | EC50 (human S1P1 receptor): 93.8 nM | number of lymphocytes found in the blood (lymphocytes in blood; after 5 h of drug application): reduced

CCCCCCc1ccc(-c2ccc(CNCCCP(=O)(O)O)cc2-c2ccccc2)cn1 [Compound 20, (3-{[6-(6-Hexyl-pyridin-3-yl)-biphenyl-3-ylmethyl]-amino}-propyl)-phosphonic acid]
activation at 5 µM (human S1P1 receptor): 94.7% | EC50 (human S1P1 receptor): 833 nM

CCCCCCc1ccc(-c2ccc(CNCCCP(=O)(O)O)nc2-c2ccco2)cc1 [Compound 9, (3-{[6-Furan-2-yl-5-(4-hexyl-phenyl)-pyridin-2-ylmethyl]-amino}-propyl)-phosphonic acid]
activation at 5 µM (human S1P1 receptor): 88.6% | EC50 (human S1P1 receptor): 0.44 nM | number of lymphocytes found in the blood (lymphocytes in blood; after 48 h of drug application): reduced

CCCCCCc1ccc(-c2ccc(CNCCCP(=O)(O)O)nc2-c2cccs2)cc1CCC [Compound 4, (3-{[5-(4-Hexyl-3-propyl-phenyl)-6-thiophen-2-yl-pyridin-2-ylmethyl]-amino}-propyl)-phosphonic acid]
activation at 5 µM (human S1P1 receptor): 79.1% | EC50 (human S1P1 receptor): 7.72 nM | number of lymphocytes found in the blood (lymphocytes in blood; after 72 h of drug application): reduced

CCCCCCc1ccc(-c2ccc(CNCCCP(=O)(O)O)nc2-c2cocn2)cc1 [Compound 7, (3-{[5-(4-Hexyl-phenyl)-6-oxazol-4-yl-pyridin-2-ylmethyl]-amino}-propyl)-phosphonic acid]
activation at 5 µM (human S1P1 receptor): 86.1% | EC50 (human S1P1 receptor): 0.87 nM | number of lymphocytes found in the blood (lymphocytes in blood; after 24 h of drug application): reduced

O=P(O)(O)CCCNCc1ccc(-c2ccc(CCCc3ccccc3)cc2)c(-c2ccccc2)c1 [Compound 12, (3-{[4-(3-Phenyl-propyl)-[1,1′;2′,1″]terphenyl-4′-ylmethyl]-amino}-propyl)-phosphonic acid]
activation at 5 µM (human S1P1 receptor): 64% | EC50 (human S1P1 receptor): 625 nM

CCCCCCc1ccc(-c2ccc(CNCCCP(=O)(O)O)nc2-c2ccccc2)cc1CCC [Compound 16, (3-{[5-(4-Hexyl-3-propyl-phenyl)-6-phenyl-pyridin-2-ylmethyl]-amino}-propyl)-phosphonic acid]
activation at 5 µM (human S1P1 receptor): 73.1% | EC50 (human S1P1 receptor): 29.6 nM | number of lymphocytes found in the blood (lymphocytes in blood; after 5 h of drug application): reduced

CCCCCCc1ccc(-c2ccc(CNCCCP(=O)(O)O)cc2-c2ccccc2)nc1 [Compound 1, (3-{[6-(5-Hexyl-pyridin-2-yl)-biphenyl-3-ylmethyl]-amino}-propyl)-phosphonic acid]
activation at 5 µM (human S1P1 receptor): 79.4% | EC50 (human S1P1 receptor): 317 nM

CCCCCCc1ccc(-c2ccc(CNCCCP(=O)(O)O)nc2-c2nccs2)cc1 [Compound 8, (3-{[5-(4-Hexyl-phenyl)-6-thiazol-2-yl-pyridin-2-ylmethyl]-amino}-propyl)-phosphonic acid]
activation at 5 µM (human S1P1 receptor): 89.3% | EC50 (human S1P1 receptor): 6.52 nM

CCCCCOc1ccc(-c2ccc(CNCCCP(=O)(O)O)nc2-c2cccc(F)c2)cc1 [Compound 17, (3-{[6-(3-Fluoro-phenyl)-5-(4-pentyloxy-phenyl)-pyridin-2-ylmethyl]-amino}-propyl)-phosphonic acid]
activation at 5 µM (human S1P1 receptor): 83.9% | EC50 (human S1P1 receptor): 2200 nM

CCCCCCc1ccc(-c2ccc(CNCCCP(=O)(O)O)nc2-c2ccsc2)cc1 [Compound 6, (3-{[5-(4-Hexyl-phenyl)-6-thiophen-3-yl-pyridin-2-ylmethyl]-amino}-propyl)-phosphonic acid]
activation at 5 µM (human S1P1 receptor): 76.9% | EC50 (human S1P1 receptor): 9.19 nM | number of lymphocytes found in the blood (lymphocytes in blood; after 48 h of drug application): reduced

CCCCCCc1ccc(-c2ccc(CNCCCP(=O)(O)O)nc2-c2cccs2)cc1 [Compound 2, (3-{[5-(4-Hexyl-phenyl)-6-thiophen-2-yl-pyridin-2-ylmethyl]-amino}-propyl)-phosphonic acid]
activation at 5 µM (human S1P1 receptor): 68.1% | EC50 (human S1P1 receptor): 5.26 nM | number of lymphocytes found in the blood (lymphocytes in blood; after 24 h of drug application): reduced

CCCCCCCCc1ccc(-c2ccc(CNCCCP(=O)(O)O)cc2-c2ccccc2)cn1 [Compound 22, (3-{[6-(6-Octyl-pyridin-3-yl)-biphenyl-3-ylmethyl]-amino}-propyl)-phosphonic acid]
activation at 5 µM (human S1P1 receptor): 89.7% | EC50 (human S1P1 receptor): 771 nM

CCCCCOc1ccc(-c2ccc(CNCCCP(=O)(O)O)nc2-c2ccccc2)cc1 [Compound 19, (3-{[5-(4-Pentyloxy-phenyl)-6-phenyl-pyridin-2-ylmethyl]-amino}-propyl)-phosphonic acid]
activation at 5 µM (human S1P1 receptor): 95.5% | EC50 (human S1P1 receptor): 358 nM

CCCCCCc1ccc(-c2ccc(CNCCCP(=O)(O)O)nc2-c2ccc(F)s2)cc1 [Compound 3, (3-{[6-(5-Fluoro-thiophen-2-yl)-5-(4-hexyl-phenyl)-pyridin-2-ylmethyl]-amino}-propyl)-phosphonic acid]
activation at 5 µM (human S1P1 receptor): 111% | EC50 (human S1P1 receptor): 25.1 nM | number of lymphocytes found in the blood (lymphocytes in blood; after 72 h of drug application): reduced

O=P(O)(O)CCCNCc1ccc(-c2ccc(CCC(F)(F)C(F)(F)C(F)(F)C(F)(F)F)cc2)c(-c2ccccc2)c1 [Compound 11, (3-{[4-(3,3,4,4,5,5,6,6,6-Nonafluoro-hexyl)-[1,1′;2′,1″]terphenyl-4′-ylmethyl]-amino}-propyl)-phosphonic acid]
activation at 5 µM (human S1P1 receptor): 71.8% | EC50 (human S1P1 receptor): 416 nM
